From patent US7999000B2, “N-(2-amino-phenyl)-acrylamides” (Hoffmann-La Roche Inc., priority 2008, dated 2011)

Assays:
HT-29 colon cancer cells = test: Antiproliferative activity, growth inhibition assay (MTS/WST); type: cell-based; details: Homo sapiens, 72 hour, read-out: GI50 (micromolar) HT-29
Protocol: Antiproliferative Activity Against Cancer Cell Lines By Novel Compounds
The novel compounds of the present invention were tested for their ability to inhibit growth of various cancer cell lines using in vitro growth inhibition assays described below.
Cells were seeded in 96-well culture plates (200 microliters/well at different seeding concentrations depending on cell type) and incubated overnight at 37 degrees Celsius in 5% CO2. After adding compound dilutions to the cells (DMSO concentration kept below 0.5%), the cells were incubated at 37 degrees Celsius in 5% CO2 for 72 hours. The effects on proliferation were determined by addition of MTS reagent (Promega) according to the manufacturer's instruction, followed by incubation for 2 hours at 37 degrees Celsius in 5% CO2, and finally recording the absorbance at 490 nm using an ELISA plate reader.
Similar to MTS assay except that the developer is the CCK-8 reagent (Dojindo) and the plate reader is set to 450 nm absorbance.
GI50 values against HT-29 colon cancer cells for specific representative compounds can be found in Table 3.

[1] = test system: p21 promoter-luciferase construct in HeLa cells; test: p21 reporter gene induction; type: cell-based; details: relative induction potency compared with SNDX-275 at 3 micromolar
Protocol: p21 Reporter Gene Induction By Novel Compounds
The novel compounds of the present invention were tested for their ability to induce p21 gene expression using a reporter gene assay involving HeLa cells transfected with a p21 promoter-luciferase construct. The p21 promoter contained the Sp1/Sp3 binding site for HDAC but not the upstream p53 binding site. Briefly, the day before transfection, HeLa cells were seeded at 11,000 cells/well in a 96-well culture plate and incubated at 37 degrees Celsius in 5% CO2 overnight. For transfection, the medium was removed and replaced with 100 microliters/well transfection media previously prepared as follows: 5 microliters serum-free DMEM, 0.15 microliters Fugene 6 reagent, 40 ng p21-luc, 10 ng GFP were mixed gently and incubated at room temperature for 30 minutes; then 98 microliters DMEM (with 10% FBS, 1% penicillin and streptomycin) was added to the DNA:Fugene 6 reagent complex and mixed gently. After incubating the cells for 24 hours at 37 degrees Celsius in 5% CO2, fresh media and test compounds were added to the wells and the cells further incubated for 15 hours at 37 degrees Celsius in 5% CO2. Cells were lysed by adding 80 microliters/well of a cell culture lysis reagent (Promega). 50 microliters of each lysate was taken for GFP detection using an excitation wavelength of 486 nm and detection at 527 nm. 100 microliters Luciferase assay reagent (Promega) was then added to every 20 microliters cell lysate for luminometer detection. […] Induction activity for specific representative compounds can be found in Table 3.

[2] = test system: histone deacetylase (HeLa nuclear extract); test: HeLa extract HDAC fluorometric assay; type: biochemical; details: relative inhibitory potency compared with SNDX-275 at 30 micromolar
Protocol: HDAC Inhibition by Novel Compounds: HeLa Extract HDAC Fluorometric Assay
Novel compounds were tested for their ability to inhibit histone deacetylase using an in vitro deacetylation assay. The enzyme source for this assay was HeLa nuclear extract. The substrate consisted of a commercial product containing an acetylated lysine side chain (both HeLa extract and substrate are available commercially from BIOMOL Research Laboratories, Inc., Plymouth Meeting, Pa.). After deacetylation of the substrate by incubation with HeLa nuclear extract, subsequent exposure to a developing reagent produces a fluorophore that is directly proportional to the level of deacetylation. Using the substrate concentration at the Km for the HeLa nuclear extract, the deacetylation assay was performed in the presence of novel compounds at 30 micromolar and the percent enzyme inhibition relative to a known reference HDAC inhibitor (SNDX-275) was determined. […] Inhibitory activity for specific representative compounds can be found in Table 3.

[3] = test system: klf2 promoter-luciferase construct in A204 cells; test: klf2 reporter gene induction (p21 versus klf2 selectivity); type: cell-based; details: for p21/klf2 (RP3): relative selectivity at 3 micromolar compared with SNDX-275 (p21/klf2 ratio defined as 1.0); for p21/klf2 (RP10): relative selectivity at 10 micromolar compared with SNDX-275 (p21/klf2 ratio defined as 1.0)
Protocol: klf2 Reporter Gene Induction By Novel Compounds
The novel compounds of the present invention were tested for their ability to induce klf2 gene expression using a reporter gene assay involving A204 cells transfected with a klf2 promoter-luciferase construct. The klf2 promoter contained the MEF2 binding site for HDAC3/class IIa HDAC complex. Briefly, the day before transfection, A204 cells were seeded at 11,000 cells/well in a 96-well culture plate and incubated at 37 degrees Celsius in 5% CO2 overnight. For transfection, the medium was removed and replaced with 100 microliters/well transfection media previously prepared as follows: 5 microliters serum-free DMEM, 0.15 microliters Fugene 6 reagent, 40 ng klf2-luc, 10 ng GFP were mixed gently and incubated at room temperature for 30 minutes; then 98 microliters DMEM (with 10% FBS, 1% penicillin and streptomycin) was added to the DNA:Fugene 6 reagent complex and mixed gently. After incubating the cells for 24 hours at 37 degrees Celsius in 5% CO2, fresh media and test compounds were added to the wells and the cells further incubated for 15 hours at 37 degrees Celsius in 5% CO2. Finally, 10 ng/ml TNF-a was added and the cells further incubated for 4 hours. Cells were lysed by adding 80 microliters/well of a cell culture lysis reagent (Promega). 50 microliters of each lysate was taken for GFP detection using an excitation wavelength of 486 nm and detection at 527 nm. 100 microliters Luciferase assay reagent (Promega) was then added to every 20 microliters cell lysate for luminometer detection.

Structure (SMILES) | GI50 (HT-29 colon cancer cells) | p21 (RP3) [1] | HD (RP30) [2] | p21/klf2 (RP3) [3] | p21/klf2 (RP10) [3]
CCN(CC)C1CCN(C(C(=O)Nc2ccc(C(F)(F)F)cc2)c2ccc(/C=C/C(=O)Nc3ccccc3N)cc2)C1 (stereo not shown) [Example 7-7, (E)-N-(2-Amino-phenyl)-3-{4-[(3-diethylamino-pyrrolidin-1-yl)-(4-trifluoromethyl-phenylcarbamoyl)-methyl]-phenyl}-acrylamide] | 2.3 µM | 230% | 183% | 2.1 | 2.0
CN(C)[C@@H]1CCN(C(C(=O)Nc2ccc(C(F)(F)F)cc2)c2ccc(/C=C/C(=O)Nc3ccccc3N)cc2)C1 (stereo partly drawn) [Example 7-6, (E)-N-(2-Amino-phenyl)-3-{4-[((R)-3-dimethylamino-pyrrolidin-1-yl)-(4-trifluoromethyl-phenylcarbamoyl)-methyl]-phenyl}-acrylamide] | 3 µM | 216% | 175% | 2.3 | 2.9
CCN(CCO)C1CCN(C(C(=O)Nc2ccc(Br)cc2)c2ccc(/C=C/C(=O)Nc3ccccc3N)cc2)C1 (stereo not shown) [Example 7-29, (E)-N-(2-Amino-phenyl)-3-[4-((4-bromo-phenylcarbamoyl)-{3-[ethyl-(2-hydroxy-ethyl)-amino]-pyrrolidin-1-yl}-methyl)-phenyl]-acrylamide] | – | 293% | 144% | 1.2 | 1.4
CCN(CC)C1CCN(C(C(=O)Nc2ccc(F)cc2)c2ccc(/C=C/C(=O)Nc3ccccc3N)cc2)C1 (stereo not shown) [Example 7-17, (E)-N-(2-Amino-phenyl)-3-{4-[(3-diethylamino-pyrrolidin-1-yl)-(4-fluoro-phenylcarbamoyl)-methyl]-phenyl}-acrylamide] | 0.7 µM | 163% | 164% | 0.7 | 1.0
CCN(CC)C1CCN(C(C(=O)Nc2ccc(C#N)cc2)c2ccc(/C=C/C(=O)Nc3ccccc3N)cc2)C1 (stereo not shown) [Example 7-16, (E)-N-(2-Amino-phenyl)-3-{4-[(4-cyano-phenylcarbamoyl)-(3-diethylamino-pyrrolidin-1-yl)-methyl]-phenyl}-acrylamide] | 0.2 µM | 157% | 159% | 0.7 | 0.9
Nc1ccccc1NC(=O)/C=C/c1ccc(C(C(=O)Nc2ccc(Br)cc2)N2CCC(N3CCCCC3)C2)cc1 (stereo not shown) [Example 7-30, (E)-N-(2-Amino-phenyl)-3-{4-[(4-bromo-phenylcarbamoyl)-(3-piperidin-1-yl-pyrrolidin-1-yl)-methyl]-phenyl}-acrylamide] | 0.7 µM | 338% | 111% | 1.2 | 0.1
CCN(CC)C1CCN(C(C(=O)Nc2ccc(Cl)cc2)c2ccc(/C=C/C(=O)Nc3ccccc3N)cc2)C1 (stereo not shown) [Example 7] | 0.4 µM | 187% | 163% | 0.8 | 1.2
